Measurements as given in patent US20230046998A1, “COMPOSITION FOR PREVENTING OR TREATING KELOID” (CHUNGNAM NATIONAL UNIVERSITY HOSPITAL, priority 2021, published 2023).

Experiments:
[1] = test system: human keloid tissue-derived fibroblasts; experiment: Cell viability of human keloid tissue-derived fibroblasts after TUDCA treatment (WST-1); format: cell-based; conditions: 6 hours, 12 hours, and 24 hours after TUDCA treatment (FIG. 5A)
Experimental: (§1) Human keloid-derived fibroblasts and normal skin-derived fibroblasts were cultured in Dulbecco's modified Eagle's medium (DMEM; Invitrogen), 10% fetal bovine serum (FBS; Hyclone, Logan, Utah, USA), 100 U/mL penicillin and 100 µg/mL streptomycin (Invitrogen) media at 5% CO2. Keloid-derived fibroblasts are placed 1×10^4/well on 96-well plates, after treatment with tauroursodeoxycholic acid (TUDCA; Merck Millipore, Billerica, Mass., USA) for 24 hours, cell proliferation was measured with an enzyme-linked immunosorbent assay reader using a 450 nm WST-1 (Roche Diagnostics Corporation, Indianapolis, Ind., USA) assay.
(§2) After treatment with TUDCA, the viability of human keloid tissue-derived fibroblasts and normal skin tissue-derived fibroblasts was evaluated.

[2] = test system: normal skin tissue-derived fibroblasts; experiment: Cell viability of normal skin tissue-derived fibroblasts after TUDCA treatment (WST-1); format: cell-based, human; conditions: 12 hours after exposure to TUDCA; smaller effect than in keloid fibroblasts (FIG. 5C)
Experimental: as §1, §2

[3] = test system: COL1A2 and ER stress-related gene expression in human keloid tissue-derived fibroblasts; experiment: COL1A2 and ER stress-related gene expression in TUDCA-treated keloid fibroblasts; format: cell-based; conditions: TUDCA-treated human keloid tissue-derived fibroblasts (FIG. 5B)
[4] = test system: keloid pathway markers p-SMAD2/3 and TGFβ1; experiment: Western blotting of keloid pathway markers in fibroblasts; format: cell-based, human; conditions: significant difference in keloid-derived versus normal skin-derived fibroblasts (FIG. 5D)
Experimental: Tissues were homogenized using a TissueLyzer II (Qiagen, Hilden, Germany). Cells and tissues were lysed in RIPA buffer (30 mM Tris [pH 7.5], 150 mM sodium chloride, 1 mM sodium phenylmethylsulfonyl fluoride, 1 mM sodium orthovanadate, 1% Nonidet P-40, 10% glycerol, phosphatase and protease inhibitors). Western blot analysis was performed with 40 μg of protein using a commercially available antibody. Anti-CHOP, anti-pERK, anti-ERK, anti-IRE1α, anti-pIRE1α, anti-pSMAD2/3 and anti-β-actin antibodies were purchased from Cell Signaling Technology (Beverly, Mass., USA). Anti-COL1A1, anti-ATF4, anti-TGFβ1, anti-IL-1 antibodies and secondary antibodies were purchased from Santa Cruz Biotechnology (Santa Cruz, Calif., USA) was used. Immune response bands were visualized by enhanced chemiluminescence (ECL) (Bio-Rad, Hercules, Calif., USA), and images were scanned using an Odyssey imaging system and quantified using Image Studio Digits (LI-COR Biosciences, Lincoln, Nebr., USA).
Human keloid-derived fibroblasts and normal skin-derived fibroblasts were cultured in Dulbecco's modified Eagle's medium (DMEM; Invitrogen), 10% fetal bovine serum (FBS; Hyclone, Logan, Utah, USA), 100 U/mL penicillin and 100 µg/mL streptomycin (Invitrogen) media at 5% CO2. […]
as §2

[5] = test system: rabbit ear scar (keloid animal model); experiment: Rabbit ear scar model, intralesional injection; format: in vivo, New Zealand white rabbit
Experimental: Animal studies were performed with the approval of the Preclinical Research Center (CNUH-019-A0079) of Chungnam National University Hospital. A 12-month-old female New Zealand white rabbit weighing about 4 kg was purchased from Damul Science (Daejeon, Korea), and all rabbits were kept individually in cages and received humane care according to institutional guidelines. After anesthetizing rabbits with a mixture of ketamine (60 mg/kg) and xylazine (5 mg/kg), the side ear hairs were shaved, disinfected with povidone-iodine, and then anesthetized. Next, after using a 10 mm biopsy punch to make 2 circular wounds with a diameter of 10 mm on the ventral surface of each ear, and covering the wound with an adhesive polyurethane dressing (Tegaderm; 3M, Minneapolis, Minn., USA), and once a day, the wound areas were disinfected with physiological saline and observed, and the adhesive polyurethane dressing was replaced. After wound formation, a simple dressing was maintained for 20 days to form a thick scar tissue, and on days 20 and 25 after wounding, saline, steroid (10 mg/mL) or TUDCA (10 mg/mL) was administered to the dermal region of the rabbit ear scar using a 30-gauge syringe (FIG. 1).
6. Scar Elevation Index (SEI) Calculation (Methods for Evaluating Keloid Tissue) SEI gives the ratio of total hypertrophic scar area to normal tissue present beneath the scar. In the present invention, the region where the cartilage layer is left as it is and the skin layer is excised is the B region. Area A contains an excessive amount of soft tissue compared to the surrounding normal dermal layer. An SEI greater than 1 indicates the formation of hypertrophic scars, keloids (FIG. 2).
Next, the efficacy of TUDCA for keloid improvement in a rabbit ear scar model was investigated.
On days 20 and 25 after wounding, normal saline (NS), steroids (10 mg/mL) or TUDCA (10 mg/mL) were injected into the scar dermis.

## C[C@H](CCC(=O)NCCS(=O)(=O)O)[C@H]1CC[C@H]2[C@@H]3[C@@H](O)C[C@@H]4C[C@H](O)CC[C@]4(C)[C@H]3CC[C@]12C [TUDCA, tauroursodeoxycholic acid]
[1]
  cell viability: significantly decreased
[2]
  viability of normal skin tissue-derived fibroblasts: decreased
[3]
  COL1A2 gene expression level: significantly reduced
  ER stress-related gene expression levels: significantly reduced
[4]
  level of TGFβ1: reduced
  level of p-SMAD2/3: reduced
[5]; 10 mg/mL injected into scar dermis on days 20 and 25 after wounding, compared with saline group (FIG. 7)
  gross appearance / healing of rabbit ear scars: healed better
[5]; 10 mg/mL intralesional, days 20 and 25, control group 2.778±0.346, p=0.0263 steroid, p=0.0098 TUDCA vs control
  Scar Elevation Index (SEI): 1.586±0.074
[5]; 10 mg/mL intralesional, days 20 and 25, tissue collected day 34, compared to saline group (FIG. 8)
  irregular fiber deposition in scar tissue (H&E): significantly reduced
[5]; rabbit ear scar model, p=0.0215
  decrease in SEI compared with the steroid group: significantly greater decrease
